Measured values published in patent US6569638B1, “Method for screening compounds for the treatment of neoplasia” (Cell Pathways, Inc, priority 2000, dated 2003).

Legend:
[1] = system: PKG in SW480 colon cancer cells; assay: PKG assay of drug-treated cell lysates (GST-cGB-PDE5 solid phase substrate); assay type: cell-based, human; conditions: 48 hrs, exisulind 200, 400, 600 μM, E4021 0.1, 1, 10 μM, with and without added cGMP
Description: To test the effect of cGMP-specific PDE inhibition on neoplasia containing the APC mutation, SW480 colon cancer cells were employed. SW 480 is known to contain the APC mutation. About 5 million SW480 cells in RPMI 5% serum are added to each of 8 dishes:
2-10 cm dishes—30 μL DMSO vehicle control (without drug),
3-10 cm dishes—200 μM, 400 μM, 600 μM exisulind in DMSO, and
The dishes are incubated for 48 hrs at 37° C. in 5% CO2 incubator.
The liquid media are aspirated from the dishes (the cells will attach themselves to the dishes). The attached cells are washed in each dish with cold PBS, and 200 μL cell lysis buffer (i.e., 50 mM Tris-HCl, 1% NP-40, 150 mM NaCl, 1 mM EDTA, 1 mM Na3VO4, 1 mM NaF, 500 μM IBMX with proteinase inhibitors) is added to each dish. Immediately after the cell lysis buffer is added, the lysed cells are collected by scraping the cells off each dish. The cell lysate from each dish is transferred to a microfuge tube, and the microfuge tubes are incubated at 4° C. for 15 minutes while gently agitating the microfuge tubes to allow the cells to lyse completely. […]
For each control or drug cell lysate sample to be evaluated, the reaction is started by adding phosphorylation buffer containing 10 μCi ^32P-γ-ATP solution (200 μM ATP, 4.5 mM MgCl; 5 mM KH2PO4; 5 mM K2HPO4;) to each mixture. […]

PKG in SW480 cells = assay: Western blot of PKG expression; assay type: cell-based, human; conditions: 48 hours
Description: SW480 cells treated with exisulind as described previously are harvested from the microfuge tubes by rinsing once with ice-cold PBS. The cells are lysed by modified RIPA buffer for 15 minutes with agitation. The cell lysate is spun down in a cold room. The supernatants are transferred to fresh microcentrifuge tubes immediately after spinning. BioRad DC Protein Assay (Temecula, Calif.) is performed to determine the protein concentrations in samples. The samples are normalized for protein concentration, as described above.
50 μg of each sample is loaded to 10% SDS gel. SDS-PAGE is performed, and the proteins then are transferred to a nitrocellulose membrane. The blotted nitrocellulose membrane are blocked in freshly prepared TBST containing 5% nonfat dry milk for one hour at room temperature with constant agitation.
A goat-anti-PKG primary antibody is diluted to the recommended concentration/dilution in fresh TBST/5% nonfat dry milk. The nitrocellulose membrane is placed in the primary antibody solution and incubated one hour at room temperature with agitation. The nitrocellulose membrane is washed three times for ten minutes each with TBST. The nitrocellulose membrane is incubated in a solution containing a secondary POD conjugated rabbit anti-goat antibody for 1 hour at room temperature with agitation. The nitrocellulose membrane is washed three times for ten minutes each time with TBST. […]

[2] = Safety evaluation in exisulind clinical trials; assay type: in vivo
Description: In these exisulind trials and several others involving the drug in other indications, safety was evaluated by monitoring adverse events (AEs), clinical laboratory tests (hematology, serum chemistry, and urinalysis), vital signs (blood pressure, pulse rate, respiratory rate, temperature, and weight), physical examination, and upper endoscopy.

[3] = system: panel of cultured human cell lines; assay: Neutral red growth inhibition, panel of cultured human cell lines; assay type: cell-based; conditions: five days continuous treatment, read-out: GI50 calculated for all cell lines
Description: Compound B's activity is not confined to activity against colon cancer cell lines or animal models of colon cancer. It has a broad range of anti-neoplastic effects in various neoplastic cell lines. Various types of human cancer cell lines were propagated under sterile conditions in RPMI 1640 medium with 10% fetal bovine serum, 2 mM L-glutamine and sodium bicarbonate. To determine growth inhibitory effects of Compound B, cells were seeded in 96-well plates at a density of 1000 cells per well. Twenty-four hours after plating, the cells were dosed with various concentrations of the free base of Compound B solubilized in DMSO (final concentration 0.1%). The effect of the drug on tumor cell growth was determined using the neutral red cytotoxicity assay following five days of continuous treatment. Neutral red is a dye that is selectively taken up by viable cells by an ATP-dependent transport mechanism.

Row | SMILES | PKG activity relative to control [1] | PKG level by Western blot (PKG in SW480 cells) | safety findings in clinical trials ([2]; human, in vivo) | maximum tolerated dose (MTD) ([2]; patients with intact colons) | maximum tolerated dose (MTD) ([2]; patients with subtotal colectomy) | maximum tolerated dose (MTD) ([2]; pediatric patients) | GI50 [3]
1 | CC1=C(CC(=O)O)c2cc(F)ccc2/C1=C\c1ccc(S(C)(=O)=O)cc1 [exisulind, 5-fluoro-2-methyl-1-(p-methylsulfonylbenzylidene)-3-indenylacetic acid] | causes PKG activity to increase in a dose-dependent manner | the increase of PKG | No outstanding safety issues have been demonstrated | 400 mg | 600 mg | 350 mg | 
2 | CC1=C(CC(=O)NCc2ccccc2)c2cc(F)ccc2/C1=C\c1ccncc1.Cl [Compound B, (Z)-5-fluoro-2-methyl-(4-pyridylidene)-3-(N-benzyl)indenylacetamide hydrochloride] |  |  |  |  |  |  | 1000 to 2000 nM
